Common to all, as to experiment: relative viability (nuclei count vs DMSO), 5 days (fraction); higher = more cells survive
Compound in assay [1]: CC(C)N(CCCNC(=O)Nc1ccc(C(C)(C)C)cc1)C[C@H]1O[C@@H](n2ccc3c(N)ncnc32)[C@H](O)[C@@H]1O + CS(=O)(=O)CCNCc1ccc(-c2ccc3ncnc(Nc4ccc(OCc5cccc(F)c5)c(Cl)c4)c3c2)o1 [Lapatinib] (partner 2 µM)
The procedure, abridged:
(§1)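 Lung cancer cell lines in 1536-well plates were dosed by pin tool the day after seeding, either with one drug alone or with a fixed anchor-drug dose plus five library-drug doses (not always all listed) in √10 steps. After 5 days, cells were fixed and their nuclei stained in one step (final 0.05% Triton X-100, 1% formaldehyde, 1 ug/ml Hoechst), then counted on 4× images. Relative viability is the nuclei count in treated wells divided by that in vehicle wells. Values are medians of duplicate plates.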

Compound in assay [2]: CC(C)N(CCCNC(=O)Nc1ccc(C(C)(C)C)cc1)C[C@H]1O[C@@H](n2ccc3c(N)ncnc32)[C@H](O)[C@@H]1O + NC(=O)Nc1cc(-c2cccc(F)c2)sc1C(=O)N[C@H]1CCCNC1 [AZD7762] (partner 0.2 µM)
The procedure, abridged: as §1

Compound in the assay “Shikonin + OSI-027”: CC(C)=CC[C@@H](O)C1=CC(=O)c2c(O)ccc(O)c2C1=O [Shikonin] + COc1cccc2cc(-c3nc([C@H]4CC[C@H](C(=O)O)CC4)n4ncnc(N)c34)[nH]c12 [OSI-027] (partner 0.5 µM)
The procedure, abridged:
as §1

Compound in assay [3]: CC(C)N(CCCNC(=O)Nc1ccc(C(C)(C)C)cc1)C[C@H]1O[C@@H](n2ccc3c(N)ncnc32)[C@H](O)[C@@H]1O + CCNC(=O)c1noc(-c2cc(C(C)C)c(O)cc2O)c1-c1ccc(CN2CCOCC2)cc1 [Luminespib] (partner 0.01 µM)
In short, it runs like this: as §1

With NCI-H1703, the relative viability is 0.956 in assay [1] (first compound 0.08 µM); 1.06 in assay [1] (first compound 0.253 µM); 0.823 in assay [1] (first compound 0.8 µM); 1.61 in assay [1] (first compound 2.53 µM); 0.892 in assay [1] (first compound 8 µM); 0.145 in assay [2] (first compound 0.08 µM). Besides, the results for the relative viability in assay [2] (first compound 0.8 µM), in assay [2] (first compound 2.53 µM) and in assay [2] (first compound 8 µM) were 0.137, 0.105 and 0.114, respectively.

Turning to NCI-H2009, the relative viability worked out at 0.687 in the assay with Shikonin + OSI-027 (first compound 0.01 µM); 0.622 with Shikonin + OSI-027 (first compound 0.1 µM); 0.52 with Shikonin + OSI-027 (first compound 0.3162 µM); 0.257 in the assay with Shikonin + OSI-027 (first compound 1 µM); 1.01 in assay [1] (first compound 0.08 µM); 0.818 in assay [1] (first compound 0.253 µM). In addition, the relative viability is 0.716 in assay [1] (first compound 0.8 µM); 0.888 in assay [1] (first compound 2.53 µM); 0.792 in assay [1] (first compound 8 µM); 0.977 in assay [3] (first compound 0.08 µM); 0.861 in assay [3] (first compound 0.253 µM); 1.08 in assay [3] (first compound 0.8 µM). Moreover, the relative viability turned out to be 1.02 in assay [3] (first compound 2.53 µM) and 0.884 in assay [3] (first compound 8 µM).

On to NCI-H2023, for which the relative viability with Shikonin + OSI-027 (first compound 0.01 µM) is 0.394; in the assay with Shikonin + OSI-027 (first compound 0.1 µM), 0.367; with Shikonin + OSI-027 (first compound 0.3162 µM) it was 0.443; with Shikonin + OSI-027 (first compound 1 µM) it was 0.408; in assay [1] (first compound 0.08 µM), 0.735; in assay [1] (first compound 0.253 µM), 0.425. The relative viability in assay [1] (first compound 0.8 µM) was determined as 0.752; in assay [1] (first compound 2.53 µM) it was 0.787; in assay [1] (first compound 8 µM), 0.592; in assay [3] (first compound 0.08 µM), 0.694; in assay [3] (first compound 0.253 µM), 0.771; in assay [3] (first compound 0.8 µM), 0.807. For the same cell line, the relative viability in assay [3] (first compound 2.53 µM) is 0.858; in assay [3] (first compound 8 µM), 0.621.

In the case of NCI-H2228, the relative viability was found to be 0.698 with Shikonin + OSI-027 (first compound 0.01 µM); 0.67 with Shikonin + OSI-027 (first compound 0.1 µM); 0.615 with Shikonin + OSI-027 (first compound 0.3162 µM); 0.639 with Shikonin + OSI-027 (first compound 1 µM); 0.971 in assay [1] (first compound 0.08 µM); 1.06 in assay [1] (first compound 0.8 µM). The relative viability in assay [1] (first compound 2.53 µM) was found to be 0.949; in assay [1] (first compound 8 µM) it was 0.984; in assay [3] (first compound 0.08 µM) it was 0.218; in assay [3] (first compound 0.253 µM), 0.191; in assay [3] (first compound 0.8 µM), 0.178; in assay [3] (first compound 2.53 µM) it was 0.144. For the same cell line, the relative viability in assay [3] (first compound 8 µM) amounted to 0.18.

For the cell line NCI-H2342, the relative viability with Shikonin + OSI-027 (first compound 0.01 µM) came to 0.597; with Shikonin + OSI-027 (first compound 0.1 µM) it was 0.589; with Shikonin + OSI-027 (first compound 0.3162 µM), 0.646; in the assay with Shikonin + OSI-027 (first compound 1 µM) it was 0.671; in assay [2] (first compound 0.08 µM), 0.454; in assay [2] (first compound 0.253 µM), 0.535. Also, the relative viability in assay [2] (first compound 0.8 µM) turned out to be 0.455; in assay [2] (first compound 2.53 µM), 0.505; in assay [2] (first compound 8 µM), 0.397; in assay [3] (first compound 0.08 µM) it was 0.856; in assay [3] (first compound 0.253 µM), 0.576; in assay [3] (first compound 0.8 µM), 0.722. For the same cell line, the relative viability amounted to 0.675 in assay [3] (first compound 2.53 µM) and 0.724 in assay [3] (first compound 8 µM).

Turning to SK-LU-1, the relative viability with Shikonin + OSI-027 (first compound 0.01 µM) is 0.341; with Shikonin + OSI-027 (first compound 0.1 µM), 0.371; with Shikonin + OSI-027 (first compound 0.3162 µM) it was 0.343; with Shikonin + OSI-027 (first compound 1 µM), 0.352; in assay [1] (first compound 0.08 µM), 0.892; in assay [1] (first compound 0.253 µM), 0.887. Also, the relative viability in assay [1] (first compound 0.8 µM) is 0.989; in assay [1] (first compound 2.53 µM), 1.13; in assay [1] (first compound 8 µM), 0.748; in assay [3] (first compound 0.08 µM), 0.193; in assay [3] (first compound 0.253 µM), 0.202; in assay [3] (first compound 0.8 µM) it was 0.182. Moreover, the relative viability in assay [3] (first compound 2.53 µM) came out at 0.252; in assay [3] (first compound 8 µM), 0.191.

On to SK-MES-1, for which the relative viability was 0.694 in the assay with Shikonin + OSI-027 (first compound 0.01 µM); 0.493 with Shikonin + OSI-027 (first compound 0.1 µM); 0.742 with Shikonin + OSI-027 (first compound 0.3162 µM); 0.519 with Shikonin + OSI-027 (first compound 1 µM); 0.501 in assay [1] (first compound 0.08 µM); 0.461 in assay [1] (first compound 0.253 µM). Moreover, the relative viability in assay [1] (first compound 0.8 µM) came to 0.455; in assay [1] (first compound 2.53 µM), 0.491; in assay [1] (first compound 8 µM), 0.414; in assay [3] (first compound 0.08 µM), 0.693; in assay [3] (first compound 0.253 µM) it was 0.723; in assay [3] (first compound 0.8 µM), 0.929. Moreover, the relative viability in assay [3] (first compound 2.53 µM) was 0.872; in assay [3] (first compound 8 µM), 0.717.

Consider SW 900, for which the relative viability with Shikonin + OSI-027 (first compound 0.01 µM) was 0.575; with Shikonin + OSI-027 (first compound 0.1 µM) it was 0.616; in the assay with Shikonin + OSI-027 (first compound 0.3162 µM), 0.508; with Shikonin + OSI-027 (first compound 1 µM), 0.569; in assay [2] (first compound 0.08 µM), 0.718; in assay [2] (first compound 0.253 µM) it was 0.529. The relative viability in assay [2] (first compound 2.53 µM) was 0.564; in assay [2] (first compound 8 µM) it was 0.554; in assay [3] (first compound 0.08 µM), 0.166; in assay [3] (first compound 0.253 µM), 0.165; in assay [3] (first compound 2.53 µM), 0.185; in assay [3] (first compound 8 µM) it was 0.19.

For SW 1573, the relative viability with Shikonin + OSI-027 (first compound 0.01 µM) amounted to 0.564; with Shikonin + OSI-027 (first compound 0.1 µM), 0.518; with Shikonin + OSI-027 (first compound 0.3162 µM), 0.443; with Shikonin + OSI-027 (first compound 1 µM), 0.258; in assay [1] (first compound 0.08 µM), 1.05; in assay [1] (first compound 0.253 µM), 1.09. Besides, the relative viability in assay [1] (first compound 0.8 µM) came to 1.09; in assay [1] (first compound 2.53 µM), 1.05; in assay [1] (first compound 8 µM), 1.16; in assay [3] (first compound 0.08 µM), 0.348; in assay [3] (first compound 0.8 µM), 0.356; in assay [3] (first compound 2.53 µM), 0.172. Besides, in assay [3] (first compound 8 µM), the relative viability is 0.194.

Regarding UMC-11, the relative viability in the assay with Shikonin + OSI-027 (first compound 0.01 µM) is 0.469; with Shikonin + OSI-027 (first compound 0.1 µM) it was 0.532; in the assay with Shikonin + OSI-027 (first compound 0.3162 µM) it was 0.492; with Shikonin + OSI-027 (first compound 1 µM), 0.526; in assay [1] (first compound 0.08 µM), 0.864; in assay [1] (first compound 0.253 µM), 0.772. Further, the relative viability in assay [1] (first compound 0.8 µM) turned out to be 0.846; in assay [1] (first compound 2.53 µM) it was 1.02; in assay [1] (first compound 8 µM), 1.05; in assay [3] (first compound 0.08 µM), 1.01; in assay [3] (first compound 0.253 µM), 0.992; in assay [3] (first compound 0.8 µM) it was 0.915. In addition, the relative viability in assay [3] (first compound 2.53 µM) came to 1; in assay [3] (first compound 8 µM), 0.977.

(Values after the supplement of paper PMC10307832.)
